From patent US20250151724A1, “Liquid Soil Treatments Containing Choline” (Harrell's, LLC, priority 2023, published 2025)

Tested on: creeping bentgrass
Experiment: Experiment No. 1: growth chamber pot trial, foliar GB and choline under heat and mild drought stress
Type: in vivo
Conditions: for Root Viability: TTC method
Protocol: A growth chamber pot trial was conducted as follows. […] The choline used in this study was supplied in the form of choline chloride from Sigma-Aldrich, Inc. (St. Louis, MO). […] These conditions simulated summer putting green stress. The treatments were as follows: • 1. […] GB at 0.5 oz./1,000 ft^2 every 14 days. • 3. GB at 1.0 oz./1,000 ft^2 every 14 days. • 4. […] The rate and source of fertilization for treatments #2-7 was the same as treatment #1 (fertilized control), so all seven treatments received identical fertility input. […] The term “low rate” is used in this description of Experiment No. 1 to refer to 0.5 oz./1,000 ft^2 treatments, while the term “high rate” is used to refer to 1.0 oz./1,000 ft^2 treatments. […] Photochemical efficiency (PE). Photochemical Efficiency was measured with a chlorophyll fluorometer (OS-50II, Opti-Sciences, Inc., Hudson, NH) biweekly based on the Fv/Fm, which is the ratio of variable chlorophyll fluorescence (Fv) to maximum chlorophyll fluorescence (Fm). […] Chlorophyll content. After clipping yields were weighed, leaf tissues were ground into powder, and chlorophyll was extracted in pure acetone content for 72 hours, and the absorbance was measured using a spectrophotometer. • e. Leaf carotenoids were extracted in the same sample as for chlorophyll content and carotenoids were measured using a spectrophotometer (Zhang et al., 2005). • f. Leaf proline content. […] After centrifuging, the supernatant was collected, and proline was analyzed according to Wu et al., 2017. • g. Root viability. […] Root growth characteristics. At the end of trial, roots from each pot were washed and cleaned. Roots were scanned using WinRHIZOTM technology (Regent Instruments Inc., Quebec, Canada), and root length, root surface area, root diameter, and root volume were calculated. (Zhang et al., 2017). • i. Root biomass of each pot was determined at the end of the trial. Roots were dried at 65° C. for 72 hours before being weighed.

Compound `C[N+](C)(C)CC(=O)[O-]` [GB, Glycine betaine, reference compound] has a Clippings dry wt (0.5 oz/1000 ft^2, Total) of 0.686bc g/pot, a Carotenoids (0.5 oz/1000 ft^2, day 0) of 1.31a mg/g FW and a Chlorophyll (0.5 oz/1000 ft^2, day 0) of 3.43a mg/g FW. The “Leaf color (1-9, 9 = dark green)” value (0.5 oz/1000 ft^2, day 0) was 7.5a, the “PE (Fv/Fm)” value (0.5 oz/1000 ft^2, day 0) was 0.777a and the Proline (0.5 oz/1000 ft^2, day 0) was 19.0a mg/g FW. It also gave a Carotenoids (0.5 oz/1000 ft^2, day 14) of 1.31a mg/g FW, a Chlorophyll (0.5 oz/1000 ft^2, day 14) of 3.44a mg/g FW and a Clippings dry wt (0.5 oz/1000 ft^2, day 14) of 0.159ab g/pot. The “Leaf color (1-9, 9 = dark green)” value (0.5 oz/1000 ft^2, day 14) was 7.1bc, the “PE (Fv/Fm)” value (0.5 oz/1000 ft^2, day 14) was 0.744ab and the Proline (0.5 oz/1000 ft^2, day 14) was 21.2bc mg/g FW. The Carotenoids (0.5 oz/1000 ft^2, day 28) was 1.00ab mg/g FW, the Chlorophyll (0.5 oz/1000 ft^2, day 28) was 2.89abc mg/g FW and the Clippings dry wt (0.5 oz/1000 ft^2, day 28) was 0.143b g/pot. The “Leaf color (1-9, 9 = dark green)” value (0.5 oz/1000 ft^2, day 28) was 6.3b, the “PE (Fv/Fm)” value (0.5 oz/1000 ft^2, day 28) was 0.676ab and the Proline (0.5 oz/1000 ft^2, day 28) was 35.1a mg/g FW. It also gave a Carotenoids (0.5 oz/1000 ft^2, day 42) of 1.13a mg/g FW, a Chlorophyll (0.5 oz/1000 ft^2, day 42) of 2.80ab mg/g FW and a Clippings dry wt (0.5 oz/1000 ft^2, day 42) of 0.152a g/pot. The “Leaf color (1-9, 9 = dark green)” value (0.5 oz/1000 ft^2, day 42) was 6.9ab, the “PE (Fv/Fm)” value (0.5 oz/1000 ft^2, day 42) was 0.668ab and the Proline (0.5 oz/1000 ft^2, day 42) was 34.9bc mg/g FW. For the same compound, the Carotenoids (0.5 oz/1000 ft^2, day 56) was 1.08ab mg/g FW, the Chlorophyll (0.5 oz/1000 ft^2, day 56) was 2.63abc mg/g FW and the Clippings dry wt (0.5 oz/1000 ft^2, day 56) was 0.233ab g/pot. For the same compound, the “Leaf color (1-9, 9 = dark green)” value (0.5 oz/1000 ft^2, day 56) was 6.3bc, the “PE (Fv/Fm)” value (0.5 oz/1000 ft^2, day 56) was 0.646ab and the Proline (0.5 oz/1000 ft^2, day 56) was 62.9ab mg/g FW. For the same compound, the “Root Biomass” value (0.5 oz/1000 ft^2, end of trial) was 1.34b g/pot, the “Root Diameter” value (0.5 oz/1000 ft^2, end of trial) was 0.189ab mm and the “Root Length” value (0.5 oz/1000 ft^2, end of trial) was 33.1b mm/cm^3. For the same compound, the “Root Volume” value (0.5 oz/1000 ft^2, end of trial) was 9.6a dm^3/cm^3, the “Root Viability” value (0.5 oz/1000 ft^2, end of trial) was 0.877abcd A490/g FW and the Clippings dry wt (1.0 oz/1000 ft^2, Total) was 0.876a g/pot. The Carotenoids (1.0 oz/1000 ft^2, day 0) was 1.30a mg/g FW, the Chlorophyll (1.0 oz/1000 ft^2, day 0) was 3.42a mg/g FW and the “Leaf color (1-9, 9 = dark green)” value (1.0 oz/1000 ft^2, day 0) was 7.5a. The “PE (Fv/Fm)” value (1.0 oz/1000 ft^2, day 0) was 0.743a, the Proline (1.0 oz/1000 ft^2, day 0) was 18.6a mg/g FW and the Carotenoids (1.0 oz/1000 ft^2, day 14) was 1.31a mg/g FW. The Chlorophyll (1.0 oz/1000 ft^2, day 14) was 3.43a mg/g FW, the Clippings dry wt (1.0 oz/1000 ft^2, day 14) was 0.211a g/pot and the “Leaf color (1-9, 9 = dark green)” value (1.0 oz/1000 ft^2, day 14) was 7.3abc. For the same compound, the “PE (Fv/Fm)” value (1.0 oz/1000 ft^2, day 14) was 0.765a, the Proline (1.0 oz/1000 ft^2, day 14) was 21.6bc mg/g FW and the Carotenoids (1.0 oz/1000 ft^2, day 28) was 1.02b mg/g FW. For the same compound, the Chlorophyll (1.0 oz/1000 ft^2, day 28) was 2.71bc mg/g FW, the Clippings dry wt (1.0 oz/1000 ft^2, day 28) was 0.225a g/pot and the “Leaf color (1-9, 9 = dark green)” value (1.0 oz/1000 ft^2, day 28) was 7.0a. For the same compound, the “PE (Fv/Fm)” value (1.0 oz/1000 ft^2, day 28) was 0.715ab, the Proline (1.0 oz/1000 ft^2, day 28) was 25.8b mg/g FW and the Carotenoids (1.0 oz/1000 ft^2, day 42) was 0.99ab mg/g FW. The Chlorophyll (1.0 oz/1000 ft^2, day 42) was 2.47ab mg/g FW, the Clippings dry wt (1.0 oz/1000 ft^2, day 42) was 0.189a g/pot and the “Leaf color (1-9, 9 = dark green)” value (1.0 oz/1000 ft^2, day 42) was 6.5b. For the same compound, the “PE (Fv/Fm)” value (1.0 oz/1000 ft^2, day 42) was 0.673ab, the Proline (1.0 oz/1000 ft^2, day 42) was 38.9abc mg/g FW and the Carotenoids (1.0 oz/1000 ft^2, day 56) was 0.96ab mg/g FW. The Chlorophyll (1.0 oz/1000 ft^2, day 56) was 2.55bc mg/g FW, the Clippings dry wt (1.0 oz/1000 ft^2, day 56) was 0.252a g/pot and the “Leaf color (1-9, 9 = dark green)” value (1.0 oz/1000 ft^2, day 56) was 6.4abc. For the same compound, the “PE (Fv/Fm)” value (1.0 oz/1000 ft^2, day 56) was 0.651a, the Proline (1.0 oz/1000 ft^2, day 56) was 68.5a mg/g FW and the “Root Biomass” value (1 oz/1000 ft^2, end of trial) was 1.64ab g/pot. The “Root Diameter” value (1 oz/1000 ft^2, end of trial) was 0.174b mm, the “Root Length” value (1 oz/1000 ft^2, end of trial) was 40.3ab mm/cm^3 and the “Root Volume” value (1 oz/1000 ft^2, end of trial) was 9.7a dm^3/cm^3. The “Root Viability” value (1 oz/1000 ft^2, end of trial) was 1.076ab A490/g FW.
